This is an account of results in PubChem BioAssay (NCI).

Structures are written as SMILES. Values joined by “and” are separate entries in the source; they are usually repeats but may differ in a detail not shown here. Identical values can stand only once.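 48-hour exposure; five concentrations; linearly interpolated endpoints. At the GI50, growth is halved. The concentration for full growth arrest is given as TGI.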 Bounds are passed on as bounds.

Among the test systems are BT-549 breast; HCC-2998 colon; MDA-MB-435; NCI-H460 lung; OVCAR-3 ovarian; OVCAR-5 ovarian; OVCAR-8 ovarian; SK-MEL-2 melanoma; SR leukemia; T-47D breast.
Holding throughout (experiment): NCI anticancer screen, dose series, 48 h

For the molecule `Cc1cc(C)c2c(c1)N(C)c1ncnc(-n3cnc4cc(C)ccc43)c1CC2C` (stereo not given), the GI50 with BT-549 breast was 2.93 µM; in the experiment with HCC-2998 colon, 4.05 µM; with MDA-MB-435, 2.44 µM; with NCI-H460 lung, 3.4 µM; in the experiment with OVCAR-3 ovarian, 3.32 µM; in the experiment with OVCAR-5 ovarian, 5.52 µM. For the same molecule, the GI50 in the experiment with OVCAR-8 ovarian was 3.79 µM; in the experiment on SK-MEL-2 melanoma, 4.21 µM; in the experiment with SR leukemia it was 0.787 µM; with T-47D breast, 4.17 µM. Besides, the TGI stood at 12 µM in the experiment with BT-549 breast; 61.8 µM with HCC-2998 colon; 10.6 µM in the experiment on MDA-MB-435; 11.4 µM in the experiment on NCI-H460 lung; 14.7 µM with OVCAR-3 ovarian; 24.4 µM with OVCAR-5 ovarian. Further, the TGI with OVCAR-8 ovarian turned out to be 20 µM; in the experiment on SK-MEL-2 melanoma it was 26.6 µM; with SR leukemia it was 8.62 µM; in the experiment with T-47D breast, 24.9 µM.
Consider `CCC(C)C1NC(=O)C(NC(=O)C(CC(C)C)N(C)C(=O)[C@@H]2CC(O)CN2C(=O)[C@H](C)O)C(C)OC(=O)[C@H](Cc2ccc(OC)cc2)N(C)C(=O)[C@@H]2CCCN2C(=O)[C@H](CC(C)C)NC(=O)C(C)C(=O)[C@H](C(C)C)OC(=O)CC1O` (stereo not given in full), for which the GI50 was 0.0259 µM in the experiment on BT-549 breast; under 0.01 µM in the experiment with HCC-2998 colon; 0.0365 µM in the experiment with MDA-MB-435; 0.019 µM in the experiment on NCI-H460 lung; 0.0793 µM in the experiment on OVCAR-3 ovarian; 0.417 µM with OVCAR-5 ovarian. Moreover, the GI50 with OVCAR-8 ovarian is 0.107 µM; in the experiment with SK-MEL-2 melanoma, under 0.01 µM; in the experiment with SR leukemia, 0.0189 µM; in the experiment on T-47D breast, 0.0137 µM. Also, the TGI in the experiment with BT-549 breast is 0.855 µM and 0.233 µM; in the experiment on HCC-2998 colon it was 0.637 µM and 0.399 µM; with MDA-MB-435 it was 0.705 µM and 0.41 µM; with NCI-H460 lung it was 1.16 µM and 1.4 µM; with OVCAR-3 ovarian it was 1.26 µM and 0.982 µM; with OVCAR-5 ovarian, 2.53 µM and 2.14 µM. The TGI with OVCAR-8 ovarian is 4.38 µM and 2.62 µM; with SK-MEL-2 melanoma, 0.342 µM and 0.206 µM; with SR leukemia, over 100 µM; with T-47D breast, 0.71 µM and 2.07 µM.
As for `COc1cc(C)[nH]c(=O)c1CNC(=O)c1c(C)n([C@H](C)C2CCN(CC(F)(F)F)CC2)c2ccccc12`, the GI50 in the experiment on BT-549 breast is 33.6 µM; in the experiment with HCC-2998 colon, over 100 µM; with MDA-MB-435, 46 µM; with NCI-H460 lung it was 42.9 µM; in the experiment on OVCAR-3 ovarian, 43.3 µM; in the experiment on OVCAR-5 ovarian it was over 100 µM. The GI50 with OVCAR-8 ovarian is over 100 µM; in the experiment with SK-MEL-2 melanoma, 47.3 µM; in the experiment with SR leukemia, 51.8 µM; in the experiment with T-47D breast it was 25.9 µM. Moreover, the TGI in the experiment with BT-549 breast, in the experiment with HCC-2998 colon, in the experiment with MDA-MB-435, in the experiment with NCI-H460 lung, with OVCAR-3 ovarian and with OVCAR-5 ovarian was over 100 µM each time. In addition, the TGI in the experiment with OVCAR-8 ovarian, with SK-MEL-2 melanoma, with SR leukemia and in the experiment on T-47D breast was over 100 µM in each case.
As to `O=C(CN1CCN(C(=O)c2ccco2)CC1)Nc1ccc(Cl)cc1C(=O)c1ccccc1Cl`, the GI50 in the experiment with BT-549 breast was 2.62 µM; with HCC-2998 colon, 14.8 µM; with MDA-MB-435, 5.83 µM; with NCI-H460 lung, 13.9 µM; in the experiment with OVCAR-3 ovarian, 5.53 µM; in the experiment on OVCAR-5 ovarian, 24 µM. The GI50 is 11.5 µM with OVCAR-8 ovarian, 3.14 µM with SK-MEL-2 melanoma, 0.896 µM in the experiment on SR leukemia and 2.32 µM in the experiment with T-47D breast. For the same molecule, the TGI in the experiment on BT-549 breast stood at 13.1 µM; in the experiment with HCC-2998 colon, 29.4 µM; with MDA-MB-435 it was 20.6 µM; in the experiment on NCI-H460 lung, 29 µM; in the experiment with OVCAR-3 ovarian it was 17.5 µM; with OVCAR-5 ovarian it was 63 µM. Also, the TGI amounted to 53.8 µM in the experiment with OVCAR-8 ovarian, 17.5 µM with SK-MEL-2 melanoma, 2.76 µM in the experiment with SR leukemia and 15.4 µM in the experiment on T-47D breast.
For the molecule `COC(=O)[C@]12CC[C@@H](C)[C@H](C)[C@@H]1C1=CC[C@@H]3[C@@](C)(CC#N)C4=C(C[C@@]3(C)[C@]1(C)CC2)OC[C@]4(C)C=O`, the GI50 in the experiment with BT-549 breast is 4.08 µM; with HCC-2998 colon, 5.81 µM; with MDA-MB-435, 4.39 µM; in the experiment with NCI-H460 lung, 10.5 µM; with OVCAR-3 ovarian, 3.41 µM; in the experiment with OVCAR-5 ovarian, 14.1 µM. The GI50 in the experiment with OVCAR-8 ovarian is 4.5 µM; in the experiment with SK-MEL-2 melanoma, 4.31 µM; in the experiment on SR leukemia, 2.56 µM; in the experiment on T-47D breast, 2.77 µM. The TGI with BT-549 breast was 32.9 µM; with HCC-2998 colon, 33 µM; in the experiment with MDA-MB-435, 44.1 µM; with NCI-H460 lung it was 28 µM; in the experiment with OVCAR-3 ovarian, 12.2 µM; in the experiment on OVCAR-5 ovarian it was 35.8 µM. In addition, the TGI with OVCAR-8 ovarian was over 100 µM; in the experiment with SK-MEL-2 melanoma it was 18 µM; in the experiment on SR leukemia it was 7.44 µM; with T-47D breast it was 16.1 µM.
